Tests used:
[1] = system: bone marrow cells; assay: Bone marrow cell proliferation assay; type: in vivo, C57B1/6J mice; conditions: 10 ug/injection i.p. twice daily, four days; mean +/- S.E. of 4 experiments
Procedure: Pathogen-free C57B1/6J mice, 8-14 weeks old were maintained according to NIH ethical guidelines. Groups of 2-3 mice received intraperitoneal injections of the PBS, SW or designated analog twice daily for 4 days. […] Eighteen hours after the last SW injection, mice were sacrificed and BM cells were harvested. Marrow cell suspensions were prepared under sterile conditions using femurs and tibias of both legs from each donor. Bone marrow (BM) cells were flushed from the marrow cavities with ice-cold RPMI 1640, washed and resuspended at desired concentrations in RPMI-1640 supplemented with 5% FCS, penicillin (100 U/ml) and streptomycin (100 μg/ml). Cell viability was monitored by staining with trypan blue. The ability of the analogues to stimulate BM proliferation was measured by two methods. First, cellularity was determined by directly counting BM cells after they were flushed from the tibias and femurs. Second, enhancement in proliferation was assessed by the increase in the proportion of BM progenitor cells present in the BM preparations as measured by colony formation in soft agar (CFU). BM cells were processed according to the procedures of the GIBCO-BRL Mouse Bone Marrow Stem Cell Proliferation Kit, which employs suspensions of mononuclear cells in a semi-solid methylcellulose medium containing FCS. 2-mercaptoethanol and the growth factors, interleukin-3 (IL-3) (75 U/ml) and erythropoietin (20 U/ml). The plates were incubated for 10-14 days at 37° C. in a humidified atmosphere of 5% CO2 and 95% air, and colonies consisting of at least 40 cells were enumerated using an inverted microscope. The potential colonies that form in the semi-solid medium are the granulocyte, erythrocyte, monocyte, megakaryocyte (ie. CFU-GEMM); the granulocyte, macrophage (ie. CFU-GM), and the burst forming unit-erythroid(ie BFUe).
Mice were given twice daily intraperitoneal injections of PBS, SW or the analogues at 10 ug/injection. After four days of injections, BM cells were flushed from the femurs and tibias and counted. CFUs growing in soft agar consisting of at least 40 cells were enumerated. The results are the mean +/-S.E. of 4 experiments.

[2] = system: B16F10 melanoma cells; assay: Lung colonization assay; type: in vivo, C57B1/6J mice; conditions: for Survivors at day 28: injected i.v.; for survival of mice 28 days after injection of treated tumor cells: versus 2-toluoyloxy-SW treated or untreated B16F10 cells
Procedure: B16F10 melanoma cells were maintained in log-phase growth in MEM plus 10% FCS (Gibco) either untreated or treated for 48 hr with SW or analogues of SW. Cells were harvested with trypsin/EDTA (Gibco), washed and 10^5 melanoma cells in 100 μl of phosphate buffered saline (PBS) were injected into the lateral tail vein of male C57B1/6J mice. The lungs were removed from the mice and tumor nodules were counted at death or on day 28 when the experiment was terminated.
B16F10 melanoma cells were injected into the lateral tail vein of C57B1/6 mice at 10^5 cells/mouse. […] The experiment was terminated on day 28 and lung colonies in the mice were counted.

[3] = system: MDAY-D2 tumor cells; conditions: cited from earlier work
[4] = system: B16F10 melanoma cells; conditions: 1000 ng/ml; cited from earlier work
[5] = molecular target: lysosomal mannosidase; assay: Lysosomal mannosidase assay (pH 5.0); type: biochemical; conditions: para-nitrophenyl α-mannose
Procedure: The assay for rat liver Golgi α-mannosidase II contained 5 mM para-nitrophenylα-mannose, 40 mM sodium acetate pH 5.6, plus serially diluted test compouunds and mannosidase enzyme in a total volume of 50 ul, in 96 well plates. Plates were incubated 45 min at 37° C., then the reaction was stopped with 50 μl of 0.5M sodium carbonate. The absorbance of reaction products was read at 405 nm. The lysosomal mannosidase was done in the same procedure but with 40 mM sodium acetate buffer pH 5.0. The numbers in the table are IC50 values in μM for inhibition of mannosidase activity.

[6] = tumor cells cultured 48 hr with 0.02 ug/ml drug
[7] = tumor cells cultured 48 hr with 0.1 ug/ml drug
[8] = tumor cells cultured 48 hr with 1.0 ug/ml drug

## O=C(OC1CN2CCCC(O)C2C1O)c1ccccc1 (centres unmarked) [2-benzoyloxy-SW]
[1]
  BM cellularity: 5.77 ± 0.00 cells × 10^7
  CFU: 421 ± 44 colonies/10^7 cells

## CCCC(=O)OC1CN2CCCC(O)C2C1O (centres unmarked) [2-butanoyloxy-SW]
[1]
  BM cellularity: 3.80 ± 0.91 cells × 10^7
  CFU: 545 ± 59 colonies/10^7 cells

## CCCCCCCC(=O)OC1CN2CCCC(O)C2C1O (centres unmarked) [2-octanoyloxy-SW]
[1]
  CFU: 482 ± 22 colonies/10^7 cells
[2]; [6]
  lung colonies (mean ± range): 9 (5-17)
  Survivors at day 28: 3/5
[2]; [7]
  lung colonies (mean ± range): 13 (8-20)
  Survivors at day 28: 3/5
[2]; [8]
  lung colonies (mean ± range): 1 (0-2)
  Survivors at day 28: 2/5
[2]
  survival of mice 28 days after injection of treated tumor cells: significantly higher

## O=C(OC1CN2CCCC(O)C2C1O)c1ccc([N+](=O)[O-])cc1 (centres unmarked) [2-p-nitrobenzoyloxy-SW]
[1]
  BM cellularity: 3.60 ± 0.42 cells × 10^7
  CFU: 380 ± 7 colonies/10^7 cells

## Cc1ccc(C(=O)O[C@@H]2CN3CCC[C@@H](O)[C@@H]3[C@@H]2O)cc1 [2-toluoyloxy-SW]
[1]
  BM cellularity: 3.40 ± 0.25 cells × 10^7
  CFU: 384 ± 25 colonies/10^7 cells
[2]; [7]
  lung colonies (mean ± range): > 100
  Survivors at day 28: 0/5
[2]; [8]
  lung colonies (mean ± range): > 100
  Survivors at day 28: 0/5

## OC1CN2C[C@@H](O)[C@@H](O)[C@H]2[C@H](O)C1O (some centres unmarked) [6,7-dihydroxy-SW]
[1]
  BM cellularity: 5.20 ± 0.03 cells × 10^7
  CFU: 538 ± 5 colonies/10^7 cells

## CCCCCCCCCCCCCC(=O)OC1CCCN2CC(O)C(O)C12 (centres unmarked) [8-myristinoyloxy-SW]
[1]
  BM cellularity: 4.80 ± 0.24 cells × 10^7
  CFU: 226 ± 6 colonies/10^7 cells

## CCCCCCCCCCCCCCCC(=O)OC1CCCN2CC(O)C(O)C12 (centres unmarked) [8-palmitoyloxy-SW]
[1]
  BM cellularity: 5.10 ± 0.57 cells × 10^7
  CFU: 553 ± 32 colonies/10^7 cells

## O[C@H]1[C@H]2[C@H](O)CCCN2C[C@H]1O [SW, Swainsonine, reference compound]
[3]
  L-PHA concentration to which cells cultured in the presence of SW are resistant: > 100 µg/mL
[1]
  BM cellularity: 4.50 ± 0.42 cells × 10^7
  CFU: 540 ± 34 colonies/10^7 cells
[2]; [6]
  lung colonies (mean ± range): 23 (15-31)
  Survivors at day 28: 2/5
[2]; [7]
  lung colonies (mean ± range): 5 (2-10)
  Survivors at day 28: 4/5
[2]; [8]
  lung colonies (mean ± range): 3 (0-4)
  Survivors at day 28: 4/5
[2]
  survival of mice 28 days after injection of treated tumor cells: significantly higher
[4]
  inhibition of organ colonization by B16F10 melanoma cells: > 90%
[5]
  IC50: 82 nM
